Test results as given in PubChem BioAssay (NCI).
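The compound was tested at five concentrations on cells cultured in 96-well plates, with a 48-hour exposure period. At the TGI there is no net growth.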

Key:
Assay in all cases: inhibition of tumour cell growth, NCI panel, 48 h
[1] = tested on: SR leukemia
[2] = tested on: SW-620 colon
[3] = tested on: HCT-116 colon
[4] = tested on: XF 498 CNS
[5] = tested on: DLD-1 colon
[6] = tested on: NCI-H23 lung
[7] = tested on: HOP-62 NSCLC
[8] = tested on: SNB-75 CNS
[9] = tested on: DMS 273 small cell lung
[10] = tested on: SK-MEL-28 melanoma
[11] = tested on: CCRF-CEM leukemia
[12] = tested on: UACC-62 melanoma
[13] = tested on: SF-539 CNS
[14] = tested on: SN12C renal
[15] = tested on: SF-295 CNS
[16] = tested on: HT29 colon
[17] = tested on: M19-MEL melanoma
[18] = tested on: 786-0 renal
[19] = tested on: OVCAR-8 ovarian
[20] = tested on: OVCAR-4 ovarian
[21] = tested on: A549 NSCLC
[22] = tested on: RXF 393 renal
[23] = tested on: SK-MEL-5 melanoma
[24] = tested on: IGROV1 ovarian
[25] = tested on: LXFL 529 NSCLC
[26] = tested on: ACHN renal
[27] = tested on: HCC-2998 colon
[28] = tested on: EKVX NSCLC
[29] = tested on: LOX IMVI melanoma
[30] = tested on: RXF-631 renal
[31] = tested on: SNB-78 CNS
[32] = tested on: A498 renal
[33] = tested on: DMS 114 small cell lung
[34] = tested on: HOP-92 NSCLC
[35] = tested on: NCI-H460 lung
[36] = tested on: OVCAR-3 ovarian
[37] = tested on: SNB-19 CNS
[38] = tested on: UACC-257 melanoma
[39] = tested on: MALME-3M melanoma
[40] = tested on: MOLT-4 leukemia
[41] = tested on: KM12 colon
[42] = tested on: RPMI-8226 leukemia
[43] = tested on: SK-OV-3 ovarian
[44] = tested on: TK-10 renal
[45] = tested on: SK-MEL-2 melanoma
[46] = tested on: U251 CNS
[47] = tested on: HOP-18 NSCLC
[48] = tested on: HCT-15 colon
[49] = tested on: KM20L2 colon
[50] = tested on: OVCAR-5 ovarian
[51] = tested on: SF-268 CNS
[52] = tested on: COLO 205 colon
[53] = tested on: NCI-H522 lung
[54] = tested on: K-562 leukemia
[55] = tested on: UO-31 renal
[56] = tested on: CAKI-1 renal
[57] = tested on: M14 melanoma
[58] = tested on: HL-60(TB) leukemia
[59] = tested on: NCI-H226 lung

COc1c(OC2OC(CO)C(O)C(O)C2O)cc2c(c1OC)-c1ccc(OC)c(=O)cc1C(NC(C)=O)CC2 (stereo not drawn)
TGI [1]: > 100 µM
TGI [2]: > 100 µM
TGI [3]: > 100 µM
TGI [4]: > 100 µM
TGI [5]: > 100 µM
TGI [6]: > 100 µM
TGI [7]: > 100 µM
TGI [8]: > 84.4 µM
TGI [9]: > 100 µM
TGI [10]: > 100 µM
TGI [11]: > 100 µM
TGI [12]: > 100 µM
TGI [13]: > 100 µM
TGI [14]: > 100 µM
TGI [15]: > 100 µM
TGI [16]: > 100 µM
TGI [17]: > 100 µM
TGI [18]: > 100 µM
TGI [19]: > 100 µM
TGI [20]: > 100 µM
TGI [21]: > 100 µM
TGI [22]: > 100 µM
TGI [23]: > 100 µM
TGI [24]: > 100 µM
TGI [25]: > 100 µM
TGI [26]: > 100 µM
TGI [27]: > 100 µM
TGI [28]: > 100 µM
TGI [29]: > 100 µM
TGI [30]: > 100 µM
TGI [31]: > 100 µM
TGI [32]: > 100 µM
TGI [33]: > 100 µM
TGI [34]: > 100 µM
TGI [35]: > 100 µM
TGI [36]: > 100 µM
TGI [37]: > 100 µM
TGI [38]: > 100 µM
TGI [39]: > 100 µM
TGI [40]: > 100 µM
TGI [41]: > 100 µM
TGI [42]: > 100 µM
TGI [43]: > 100 µM
TGI [44]: > 100 µM
TGI [45]: > 100 µM
TGI [46]: > 100 µM
TGI [47]: > 100 µM
TGI [48]: > 100 µM
TGI [49]: > 100 µM
TGI [50]: > 100 µM
TGI [51]: > 100 µM
TGI [52]: > 100 µM
TGI [53]: > 100 µM
TGI [54]: > 100 µM
TGI [55]: > 100 µM
TGI [56]: > 100 µM
TGI [57]: > 100 µM
TGI [58]: > 100 µM
TGI [59]: > 100 µM

Cc1ccc(-n2c3nc(=O)n(C)c(=O)c-3nc3ccccc32)c(C)c1
TGI [2]: 19.1 µM
TGI [3]: 24 µM
TGI [4]: 26 µM
TGI [5]: 39.9 µM
TGI [6]: 7.75 µM
TGI [7]: > 100 µM
TGI [8]: 26.7 µM
TGI [9]: 18.5 µM
TGI [11]: 41.6 µM
TGI [12]: 5.49 µM
TGI [13]: 26.4 µM
TGI [14]: 22.8 µM
TGI [15]: 22.9 µM
TGI [16]: 11.7 µM
TGI [17]: 3.33 µM
TGI [18]: 42.1 µM
TGI [19]: 32.9 µM
TGI [20]: 24.6 µM
TGI [21]: 20.4 µM
TGI [22]: 34.5 µM
TGI [23]: 18.5 µM
TGI [24]: 36.4 µM
TGI [25]: 24.8 µM
TGI [26]: 15.8 µM
TGI [27]: 19 µM
TGI [28]: 21.6 µM
TGI [29]: 33.9 µM
TGI [30]: 23.9 µM
TGI [31]: 44.5 µM
TGI [35]: 15.3 µM
TGI [36]: 6.33 µM
TGI [37]: 16.1 µM
TGI [38]: 12.6 µM
TGI [39]: 12.9 µM
TGI [40]: 36.2 µM
TGI [41]: 26.5 µM
TGI [42]: 42.4 µM
TGI [43]: 75.8 µM
TGI [44]: 27.2 µM
TGI [45]: 27.5 µM
TGI [46]: 32.1 µM
TGI [47]: 20.1 µM
TGI [48]: 22.5 µM
TGI [49]: 17.6 µM
TGI [50]: 32.7 µM
TGI [51]: 34.8 µM
TGI [52]: 13 µM
TGI [53]: 29 µM
TGI [54]: 40.6 µM
TGI [55]: 52.5 µM
TGI [56]: 57.7 µM
TGI [57]: 18.6 µM
TGI [58]: 29.2 µM
TGI [59]: 30.7 µM
